Measurements taken from US6630128B1, “Porphyrin derivatives their use in photodynamic therapy and medical devices containing them” (Destiny Pharma Limited, priority 1999, dated 2003).

Columns and labels:
[1] = Fluorescence quantum yields (corrected emission spectra, relative to TPP); assay type: physicochemical; conditions: excitation wavelength 355 nm, emission 550-800 nm
Description: Mass spectra were recorded on a Finnigan MAT TSQ 700 triple quadrupole mass spectrometer equipped with an […]. The matrix-assisted laser desorption/ionization mass spectra of the porphyrins were obtained using a dithranol matrix. FAB-MS spectra were obtained using a 3-nitrobenzyl alcohol (NOBA) matrix. ^1H-NMR spectra were measured at 60 MHz on a Jeol JNM-PMX60 spectrometer, at 270 MHz on a Jeol EX 270 spectrometer and at 300 MHx on a Varian Gemini-300 spectrometer in CDCl3 using TMS as an internal reference. Ultraviolet/visible spectra of solutions of compounds in tetrahydrofuran (THF) or toluene were measured using a Hitachi U-3000 spectrophotometer or a ATI-Unicam UV-2 spectrophotometer. Reflectance-absorbance infra red (RAIR) spectra were recorded on a BIO-RAD FTS 165 spectrophotometer. Fluorescence emission spectra were recorded using a Spex Fluorolog 3 spectrophotometer at an excitation wavelength of 355 nm, emission at 550 to 800 nm, with a bandpass of 2 nm.
The emission spectra were recorded using a Spex Fluorolog 3, excitation wavelength=355 nm, emission 550-800 nm, with a bandpass of 2 nm. A spectrum was recorded for each of the title compounds of Examples 67 to 81.
The fluorescence quantum yield for each of the title compounds of Examples 67 to 81 was determined by measuring the integral of the corrected emission spectra for each compound and calculated relative to TPP=0.11 (Handbook of Photochemistry Ed 2, Murov, Carmichael and Hug, Dekker 1993). The fluorescence quantum yield for each of the title compounds of Examples 67 to 81 are listed in Table 1; values for Zn TPP and Mg TPP are included in Table 1 for reference but they were not measured in this work.

[2] = Singlet oxygen quantum yields (singlet oxygen phosphorescence at 1270 nm); assay type: physicochemical; conditions: aerated toluene, excitation 355 nm, 20-23° C., relative to TPP ΦΔ=0.58
Description: The singlet oxygen quantum yields were determined by the direct measurement of singlet oxygen phosphorescence at 1270 nm. Samples were excited using the third harmonic of a Q-switched Nd:YAG (neodymium: yttrium-aluminium-garnet) Spectra Physics GCR-150-10 laser, operating at an excitation wavelength of 355 nm. A small fraction of the laser output was passed through a solution state filter containing aqueous cobalt (II) sulphate (CoSO4) to remove residual 532 and 1064 nm radiation and then down a 8 mm diameter liquid light guide (Oriel). For the measurements the end of the light guide was held against a 1 cm×1 cm fluorescence cuvette (Hellma) holding the sample. During the course of the experiments the incident laser energy for each measurement was determined using a pyroelectric detector held behind the sample. This detector was calibrated at the start of the experiment using a second calibrated energy meter (Gentec ED100). The laser energy was adjusted by placing cells containing aqueous sodium nitrite between the CoSO4 filter and the light guide. Typical pulse energies used were in the range of 25-500 μJ per pulse. Shot to shot noise was estimated to be <10% and sets of 20 shots gave an average value within <3%.
Phosphorescence from the sample was collected and passed through an interference filter centred at 1270 nm available from (Infra Red Engineering Ltd) and then focused onto the active area of a liquid nitrogen cooled germanium photodiode (North Coast EO-817P). The output from this device was AC coupled to a digital oscilloscope (Tektronix TDS-320) which digitised and averaged the transients. Typically 20 laser shots were used for each sample. The averaged data was transferred to a PC where it was stored and analysed.
A stock solution of each of the title compounds of Examples 67 to 81 was prepared by dissolving a small sample of the respective title compound in approximately 5 ml of toluene (Fisher Scientific, Analytical grade). The exact concentrations of the stock solution was not determined.
A working solution of each of the title compounds of Examples 67 to 81 was prepared by diluting the respective stock solution with toluene to give an absorbance of 0.100±0.005 at 355 nm when placed in a ultraviolet/visible spectrometer (ATI-Unicam UV-2) compared to a reference cell containing the pure toluene solvent. The ultraviolet/visible spectrum of each sample was also recorded over the range 300-700 nm.
All of the data were recorded at ambient temperature, 20-23° C., and the solutions were aerated. The singlet oxygen emission decay was recorded for each sample using 5 laser energies and the data for each measurement were fitted to an exponential decay of the form I(t)=A.exp(−t/τ), where I(t) is the measured intensity of singlet oxygen phosphorescence at time t, A is the intensity extrapolated back to t=0 (ie when the laser fires), and τ is the lifetime of singlet oxygen. A typical decay for the title compound of Example 78 in toluene excited at 355 nm using a pulse energy of 365 μJ, where A=19.6 and τ=27.8 μs, is shown in FIG. 2.
A plot of A versus the incident laser energy was drawn for each sample and the slope determined. The slope of such a graph is proportional to the singlet oxygen quantum yield. An example of a plot showing the linear relationship between the singlet oxygen emission intensity and the laser energy for the title compound of Example 78 and meso-tetraphenylporphyrin (TPP) is shown in FIG. 3.
The experiments were carried out using batches of 5 samples of the working solution of each of the title compounds of 67 to 81 plus one reference sample meso-tetraphenylporphyrin (TPP). Each run was repeated at least once. The data sets obtained for each sample were within ±5% of the mean value.
The dominant sources of error in the experiment include the shot-to-shot fluctuations in the laser and the difference in absorbances of the samples at the excitation wavelength. The values have an error of ±10%. […]

Compound | Quantum yield of fluorescence, relative to TPP = 0.11 [1] | ΦΔ (singlet oxygen quantum yield) [2]
5,5′-{4,4′-[12,12′-Dithiobis-(dodecyloxy)-phenyl]}-10,10′,15,15′,20,20′-hexakis-(3,4,5-tridecyloxy-phenyl)-diporphyrinato Zinc [Example 67] | 0.04 | 0.65 ± 0.07
5-[4-(6-but-3-Enyloxy-hexyloxy)-phenyl]-10,15,20-tris-(3,4,5-tridecyloxy-phenyl)-porphyrinato Zinc [Example 70] | 0.04 | 0.75 ± 0.07
5-[4-(12-but-3-Enyloxy-dodecyloxy)-phenyl]-10,15,20-tris-(3,5-didecyloxy-phenyl)-porphyrinato Zinc [Example 80] | 0.04 | 0.75 ± 0.07
5-[4-(6-but-3-Enyloxy-hexyloxy)-phenyl]-10,15,20-tris-(3,5-didecyloxy-phenyl)-porphyrinato Zinc [Example 79] | 0.04 | 0.76 ± 0.08
5-[4-(12-but-3-Enyloxy-dodecyloxy)-phenyl]-10,15,20-tris-(3,5-dihexadecyloxy-phenyl)-porphyrinato Zinc [Example 81] | 0.04 | 0.70 ± 0.07
5,5′-{4,4′-[12,12′-Dithiobis-(dodecyloxy)-phenyl]}-10,10′,15,15′,20,20′-hexakis-(3,4,5-tridecyloxy-phenyl)-diporphyrinato Magnesium [Example 68] | 0.10 | 0.39 ± 0.04
C=CCCOCCCCCCOc1ccc(-c2c3nc(c(-c4cc(OCCCCCC)c(OCCCCCC)c(OCCCCCC)c4)c4ccc([n-]4)c(-c4cc(OCCCCCC)c(OCCCCCC)c(OCCCCCC)c4)c4nc(c(-c5cc(OCCCCCC)c(OCCCCCC)c(OCCCCCC)c5)c5ccc2[n-]5)C=C4)C=C3)cc1.[Zn+2] [Example 69, 5-[4-(6-but-3-Enyloxy-hexyloxy)-phenyl]-10,15,20-tris-(3,4,5-trihexyloxy-phenyl)-porphyrinato Zinc] | 0.04 | 0.71 ± 0.07

The next lines start with results.

Quantum yield of fluorescence, relative to TPP = 0.11 [1] | Compound | ΦΔ (singlet oxygen quantum yield) [2]
0.04 | C=CCCOCCCCCCOc1ccc(-c2c3nc(c(-c4cc(OCCCCCCCCCCCCCCCC)c(OCCCCCCCCCCCCCCCC)c(OCCCCCCCCCCCCCCCC)c4)c4ccc([n-]4)c(-c4cc(OCCCCCCCCCCCCCCCC)c(OCCCCCCCCCCCCCCCC)c(OCCCCCCCCCCCCCCCC)c4)c4nc(c(-c5cc(OCCCCCCCCCCCCCCCC)c(OCCCCCCCCCCCCCCCC)c(OCCCCCCCCCCCCCCCC)c5)c5ccc2[n-]5)C=C4)C=C3)cc1.[Zn+2] [Example 71, 5-[4-(6-but-3-Enyloxy-hexyloxy)-phenyl]-10,15,20-tris-(3,4,5-trihexadecyloxy-phenyl)-porphyrinato Zinc] | 0.72 ± 0.07
0.04 | C=CCCOCCCCCCCCCCCCOc1ccc(-c2c3nc(c(-c4cc(OCCCCCCCCCC)c(OCCCCCCCCCC)c(OCCCCCCCCCC)c4)c4ccc([n-]4)c(-c4cc(OCCCCCCCCCC)c(OCCCCCCCCCC)c(OCCCCCCCCCC)c4)c4nc(c(-c5cc(OCCCCCCCCCC)c(OCCCCCCCCCC)c(OCCCCCCCCCC)c5)c5ccc2[n-]5)C=C4)C=C3)cc1.[Zn+2] [Example 73, 5-[4-(12-but-3-Enyloxy-dodecyloxy)-phenyl]-10,15,20-tris-(3,4,5-tridecyloxy-phenyl)-porphyrinato Zinc] | 0.71 ± 0.07
0.04 | C=CCCOCCCCCCCCCCCCOc1ccc(-c2c3nc(c(-c4cc(OCCCCCCCCCCCCCCCC)c(OCCCCCCCCCCCCCCCC)c(OCCCCCCCCCCCCCCCC)c4)c4ccc([n-]4)c(-c4cc(OCCCCCCCCCCCCCCCC)c(OCCCCCCCCCCCCCCCC)c(OCCCCCCCCCCCCCCCC)c4)c4nc(c(-c5cc(OCCCCCCCCCCCCCCCC)c(OCCCCCCCCCCCCCCCC)c(OCCCCCCCCCCCCCCCC)c5)c5ccc2[n-]5)C=C4)C=C3)cc1.[Zn+2] [Example 74, 5-[4-(12-but-3-Enyloxy-dodecyloxy)-phenyl]-10,15,20-tris-(3,4,5-trihexadecyloxy-phenyl)-porphyrinato Zinc] | 0.71 ± 0.07
0.14 | C=CCCOCCCCCCOc1ccc(-c2c3nc(c(-c4cc(OCCCCCCCCCC)c(OCCCCCCCCCC)c(OCCCCCCCCCC)c4)c4ccc([n-]4)c(-c4cc(OCCCCCCCCCC)c(OCCCCCCCCCC)c(OCCCCCCCCCC)c4)c4nc(c(-c5cc(OCCCCCCCCCC)c(OCCCCCCCCCC)c(OCCCCCCCCCC)c5)c5ccc2[n-]5)C=C4)C=C3)cc1.[Mg+2] [Example 77, 5-[4-(6-but-3-Enyloxy-hexyloxy)-phenyl]-10,15,20-tris-(3,4,5-tridecyloxy-phenyl)-porphyrinato Magnesium] | 0.51 ± 0.05
0.03 | C=CCCOCCCCCCCCCCCCCCCCOc1ccc(-c2c3nc(c(-c4cc(OCCCCCCCCCCCCCCCC)c(OCCCCCCCCCCCCCCCC)c(OCCCCCCCCCCCCCCCC)c4)c4ccc([n-]4)c(-c4cc(OCCCCCCCCCCCCCCCC)c(OCCCCCCCCCCCCCCCC)c(OCCCCCCCCCCCCCCCC)c4)c4nc(c(-c5cc(OCCCCCCCCCCCCCCCC)c(OCCCCCCCCCCCCCCCC)c(OCCCCCCCCCCCCCCCC)c5)c5ccc2[n-]5)C=C4)C=C3)cc1.[Zn+2] [Example 76, 5-[4-(16-but-3-Enyloxy-hexadecyloxy)-phenyl]-10,15,20-tris-(3,4,5-trihexadecyloxy-phenyl)-porphyrinato Zinc] | 0.66 ± 0.07
0.04 | C=CCCOCCCCCCCCCCCCCCCCOc1ccc(C2=c3ccc4[n]3[Zn][n]3c(ccc3C(c3cc(OCCCCCCCCCC)c(OCCCCCCCCCC)c(OCCCCCCCCCC)c3)=C3C=CC(=N3)C=4c3cc(OCCCCCCCCCC)c(OCCCCCCCCCC)c(OCCCCCCCCCC)c3)C(c3cc(OCCCCCCCCCC)c(OCCCCCCCCCC)c(OCCCCCCCCCC)c3)=C3C=CC2=N3)cc1 [Example 75, 5-[4-(16-but-3-Enyloxy-hexadecyloxy)-phenyl]-10,15,20-tris-(3,4,5-tridecyloxy-phenyl)-porphyrinato Zinc] | 0.71 ± 0.07
